In brackets after ≈: the same amount, converted by molar mass.
Experiments:
E. faecium TUH50-22 = assay: MIC, multi-resistant clinical isolate; type: cell-based, Enterococcus faecium; conditions: for MIC: Enterococcus faecium, TUH5022, read-out: Antimicrobial activity (MIC); for selectivity index (EC50/MIC): RBC EC50 / MIC
Description: (§1) Working solutions of the test derivatives were prepared with up to 100% DMSO and stored at −20° C. If necessary, the solutions were heated to 40-80° C. before testing to facilitate complete dissolution. Double-distilled water was used in all dilutions prepared. […] A microdilution susceptibility test was used for MIC determination according to Clinical and Laboratory Standards Institute, “Methods for Dilution Antimicrobial Sisceptibility Tests for Bacteria That Graw Aerobically”, Approved Standard M07-A9, edition 2012, with modifications as described by Igumnova et al (Bioorg Med Chem, 2016, 24 (22), 5884-5894).
(§2) Briefly, the bacterial inoculum was adjusted to approximately 2.5-3×10^4 cells/mL in Mueller-Hinton broth (MHB, Difco Laboratories, USA), and incubated in a ratio of 1:1 with test derivatives in polystyrene 96-well flat-bottom microplates (NUNC, Roskilde, Denmark). Positive growth control (without test derivatives) and negative control (without bacteria) were included. The reference antibiotic was oxytetracycline hydrochloride (Sigma Aldrich, Saint Louis, Mo., USA). The microplates were incubated in an EnVision microplate reader (Perkin-Elmer, Turku, Finland) placed in an incubator set to 35° C. for 48 h. The MIC value was defined as the lowest concentration of derivative resulting in no bacterial growth as determined by OD600 measurement. All derivatives were tested in three parallels.
(§3) The MIC was determined as explained above with some exceptions; working solutions of test derivatives were prepared from concentrated DMSO stocks stored at room temperature, the density of the bacterial inoculum was increased 40× to 1-1.2×10^6 cells/mL, enterococci were incubated in Brain Heart Infusion broth (BHIB, Difco Laboratories, USA), the microplates were incubated for 24 h, and the derivatives were tested in four parallels.

E. faecium 50901530 = assay: MIC, multi-resistant clinical isolate; type: cell-based, Enterococcus faecium; conditions: for MIC: Enterococcus faecium, read-out: Antimicrobial activity (MIC); for selectivity index (EC50/MIC): RBC EC50 / MIC
Description: as §1, §2, §3

E. faecium K36-18 = assay: MIC, multi-resistant clinical isolate; type: cell-based, Enterococcus faecium; conditions: for MIC: Enterococcus faecium, K3618, read-out: Antimicrobial activity (MIC); for selectivity index (EC50/MIC): RBC EC50 / MIC, E. faecium K36-18
Description: as §1, §2, §3

E. faecium 50673722 = assay: MIC, multi-resistant clinical isolate; type: cell-based, Enterococcus faecium; conditions: for MIC: Enterococcus faecium, read-out: Antimicrobial activity (MIC); for selectivity index (EC50/MIC): RBC EC50 / MIC
Description: as §1, §2, §3

E. faecium 50758899 = assay: MIC, multi-resistant clinical isolate; type: cell-based, Enterococcus faecium; conditions: for MIC: Enterococcus faecium, read-out: Antimicrobial activity (MIC); for selectivity index (EC50/MIC): RBC EC50 / MIC
Description: as §1, §2, §3

K. pneumoniae K47-25 = assay: MIC, multi-resistant clinical isolate; type: cell-based, Klebsiella pneumoniae; conditions: Klebsiella pneumoniae, K4725, 24 h, read-out: Antimicrobial activity (MIC)
Description: as §1, §2, §3

K. pneumoniae 50531633 = assay: MIC, multi-resistant clinical isolate; type: cell-based, Klebsiella pneumoniae; conditions: K. pneumoniae 50531633, resistant to colistin; for MIC: Klebsiella pneumoniae, 24 h, read-out: Antimicrobial activity (MIC); for selectivity index (EC50/MIC): RBC EC50 / MIC
Description: as §1, §2, §3

K. pneumoniae 50625602 = assay: MIC, multi-resistant clinical isolate; type: cell-based, Klebsiella pneumoniae; conditions: for MIC: Klebsiella pneumoniae, read-out: Antimicrobial activity (MIC); for selectivity index (EC50/MIC): RBC EC50 / MIC
Description: as §1, §2, §3

K. pneumoniae 50667959 = assay: MIC, multi-resistant clinical isolate; type: cell-based, Klebsiella pneumoniae; conditions: for MIC: Klebsiella pneumoniae, read-out: Antimicrobial activity (MIC); for selectivity index (EC50/MIC): RBC EC50 / MIC
Description: as §1, §2, §3

K. pneumoniae K66-45 = assay: MIC, multi-resistant clinical isolate; type: cell-based, Klebsiella pneumoniae; conditions: for MIC: Klebsiella pneumoniae, K6645, read-out: Antimicrobial activity (MIC); for selectivity index (EC50/MIC): RBC EC50 / MIC, K. pneumoniae K66-45
Description: as §1, §2, §3

P. aeruginosa K44-24 = assay: MIC, multi-resistant clinical isolate; type: cell-based, Pseudomonas aeruginosa; conditions: for MIC: Pseudomonas aeruginosa, K4424, read-out: Antimicrobial activity (MIC)
Description: as §1, §2, §3

P. aeruginosa K34-73 = assay: MIC, multi-resistant clinical isolate; type: cell-based, Pseudomonas aeruginosa; conditions: for MIC: Pseudomonas aeruginosa, K3473, read-out: Antimicrobial activity (MIC)
Description: as §1, §2, §3

P. aeruginosa K34-7 = assay: MIC, multi-resistant clinical isolate; type: cell-based, Pseudomonas aeruginosa; conditions: for MIC: Pseudomonas aeruginosa, K347, read-out: Antimicrobial activity (MIC)
Description: as §1, §2, §3

P. aeruginosa 50692520 = assay: MIC, multi-resistant clinical isolate; type: cell-based, Pseudomonas aeruginosa; conditions: for MIC: Pseudomonas aeruginosa, read-out: Antimicrobial activity (MIC)
Description: as §1, §2, §3

P. aeruginosa 50692172 = assay: MIC, multi-resistant clinical isolate; type: cell-based, Pseudomonas aeruginosa; conditions: for MIC: Pseudomonas aeruginosa, read-out: Antimicrobial activity (MIC)
Description: as §1, §2, §3

[1] = tested on: Escherichia coli ATCC 25922; assay: MIC assay, antibiotic susceptible reference strain; type: cell-based; conditions: Escherichia coli, ATCC25922, read-out: Antimicrobial activity (MIC) E. c
Description: as §1, §2

[2] = tested on: Pseudomonas aeruginosa PA01, DSM 19880 (ATCC 15692); assay: MIC assay, antibiotic susceptible reference strain; type: cell-based; conditions: Pseudomonas aeruginosa, read-out: Antimicrobial activity (MIC) P. a
Description: as §1, §2

[3] = tested on: Staphylococcus aureus ATCC 9144; assay: MIC assay, antibiotic susceptible reference strain; type: cell-based; conditions: Staphylococcus aureus, ATCC9144, read-out: Antimicrobial activity (MIC) S. a
Description: as §1, §2

E. coli 50676002 = assay: MIC, multi-resistant clinical isolate; type: cell-based, Escherichia coli; conditions: for MIC: Escherichia coli, 50676002, read-out: Antimicrobial activity (MIC); for selectivity index (EC50/MIC): RBC EC50 / MIC, E. coli 50676002
E. coli 50857972 = assay: MIC, multi-resistant clinical isolate; type: cell-based, Escherichia coli; conditions: for MIC: Escherichia coli, read-out: Antimicrobial activity (MIC); for selectivity index (EC50/MIC): RBC EC50 / MIC
E. coli 50639799 = assay: MIC, multi-resistant clinical isolate; type: cell-based, Escherichia coli; conditions: for MIC: Escherichia coli, read-out: Antimicrobial activity (MIC); for selectivity index (EC50/MIC): RBC EC50 / MIC
E. coli 50579417 = assay: MIC, multi-resistant clinical isolate; type: cell-based, Escherichia coli; conditions: for MIC: Escherichia coli, read-out: Antimicrobial activity (MIC); for selectivity index (EC50/MIC): RBC EC50 / MIC

SMILES | MIC (E. faecium TUH50-22) | selectivity index (EC50/MIC) (E. faecium TUH50-22) | MIC (E. faecium 50901530) | selectivity index (EC50/MIC) (E. faecium 50901530) | MIC (E. faecium K36-18) | selectivity index (EC50/MIC) (E. faecium K36-18) | MIC (E. faecium 50673722) | selectivity index (EC50/MIC) (E. faecium 50673722) | MIC (E. faecium 50758899) | selectivity index (EC50/MIC) (E. faecium 50758899) | MIC (K. pneumoniae K47-25) | MIC (K. pneumoniae 50531633) | selectivity index (EC50/MIC) (K. pneumoniae 50531633) | MIC (K. pneumoniae 50625602) | selectivity index (EC50/MIC) (K. pneumoniae 50625602) | MIC (K. pneumoniae 50667959) | selectivity index (EC50/MIC) (K. pneumoniae 50667959) | MIC (K. pneumoniae K66-45) | selectivity index (EC50/MIC) (K. pneumoniae K66-45) | MIC (P. aeruginosa K44-24) | other results
CC(C)(C)c1ccc(CC2(Cc3ccc(C(C)(C)C)cc3)C(=O)N(CCCCN)C(=O)N(CCCCN)C2=O)cc1 [Compound 7(i), 1,3-bis(4-aminobutyl)-5,5-bis(4-tertbutylbenzyl) pyrimidin-2,4,6(1H,3H,5H)-trione] | 8 µg/mL (≈ 14.2 µM) | (18) | 4 µg/mL (≈ 7.11 µM) | (36) | 8 µg/mL (≈ 14.2 µM) | (18) | 8 µg/mL (≈ 14.2 µM) | (18) | 8 µg/mL (≈ 14.2 µM) | (18) | > 32 µg/mL | 16 µg/mL (≈ 28.4 µM) | (9) | 16 µg/mL (≈ 28.4 µM) | (9) | 32 µg/mL (≈ 56.9 µM) | (4) | 32 µg/mL (≈ 56.9 µM) | (4) | > 32 µg/mL | MIC (P. aeruginosa K34-73): > 32 µg/mL; MIC (P. aeruginosa K34-7): > 32 µg/mL; MIC (P. aeruginosa 50692520): > 32 µg/mL; MIC (P. aeruginosa 50692172): > 32 µg/mL; MIC [1]: 4 µg/mL (≈ 7.11 µM); MIC [2]: 8 µg/mL (≈ 14.2 µM); MIC [3]: 4 µg/mL (≈ 7.11 µM); MIC (E. coli 50676002): 4 µg/mL (≈ 7.11 µM); selectivity index (EC50/MIC) (E. coli 50676002): (36); MIC (E. coli 50857972): 4 µg/mL (≈ 7.11 µM); selectivity index (EC50/MIC) (E. coli 50857972): (36); MIC (E. coli 50639799): 8 µg/mL (≈ 14.2 µM); selectivity index (EC50/MIC) (E. coli 50639799): (18); MIC (E. coli 50579417): 8 µg/mL (≈ 14.2 µM); selectivity index (EC50/MIC) (E. coli 50579417): (18)
NCCCCN1C(=O)N(CCCCN)C(=O)C(Cc2cc(C(F)(F)F)cc(C(F)(F)F)c2)(Cc2cc(C(F)(F)F)cc(C(F)(F)F)c2)C1=O [7(vi)] | 8 µg/mL (≈ 11.1 µM) | (23) | 8 µg/mL (≈ 11.1 µM) | (23) | 16 µg/mL (≈ 22.1 µM) | (11) | 8 µg/mL (≈ 11.1 µM) | (23) | 16 µg/mL (≈ 22.1 µM) | (11) | > 32 µg/mL | 32 µg/mL (≈ 44.3 µM) | (6) | 32 µg/mL (≈ 44.3 µM) | (6) | 32 µg/mL (≈ 44.3 µM) | (6) | 32 µg/mL (≈ 44.3 µM) | (6) | 32 µg/mL (≈ 44.3 µM) | selectivity index (EC50/MIC) (P. aeruginosa K44-24; RBC EC50 / MIC): (6); MIC (P. aeruginosa K34-73): 32 µg/mL (≈ 44.3 µM); selectivity index (EC50/MIC) (P. aeruginosa K34-73; RBC EC50 / MIC, P. aeruginosa K34-73): (6); MIC (P. aeruginosa K34-7): 32 µg/mL (≈ 44.3 µM); selectivity index (EC50/MIC) (P. aeruginosa K34-7; RBC EC50 / MIC, P. aeruginosa K34-7): (6); MIC (P. aeruginosa 50692520): 32 µg/mL (≈ 44.3 µM); selectivity index (EC50/MIC) (P. aeruginosa 50692520; RBC EC50 / MIC): (6); MIC (P. aeruginosa 50692172): 32 µg/mL (≈ 44.3 µM); selectivity index (EC50/MIC) (P. aeruginosa 50692172; RBC EC50 / MIC): (6); MIC [1]: 8 µg/mL (≈ 11.1 µM); MIC [2]: 8 µg/mL (≈ 11.1 µM); MIC [3]: 8 µg/mL (≈ 11.1 µM); MIC (E. coli 50676002): 16 µg/mL (≈ 22.1 µM); selectivity index (EC50/MIC) (E. coli 50676002): (11); MIC (E. coli 50857972): 8 µg/mL (≈ 11.1 µM); selectivity index (EC50/MIC) (E. coli 50857972): (23); MIC (E. coli 50639799): 16 µg/mL (≈ 22.1 µM); selectivity index (EC50/MIC) (E. coli 50639799): (11); MIC (E. coli 50579417): 16 µg/mL (≈ 22.1 µM); selectivity index (EC50/MIC) (E. coli 50579417): (11)
